Reference: PubChem BioAssay AID328 (DTP/NCI, 2004)
“And” between values parts separate entries of the source, which are not always exact repeats. Identical values can stand only once. Toxic doses and inconclusive results are not listed.

Tested on: BDF1 mice, P388 leukemia ip, median survival T/C
Experiment: NCI In Vivo Anticancer Drug Screen. Data for tumor model P388 Leukemia (intraperitoneal) in B6D2F1 (BDF1) mice
Details: endpoint: median survival time, higher = longer survival
Summary of the method: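 Mice carrying the transplantable tumour receive compound or vehicle. Survival is followed in each arm, and the treated measure is divided by the vehicle measure.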

[1] = dose: 50.0 mg/kg/injection, schedule: Q01DX009 (ip), vehicle: saline with Tween-80
[2] = dose: 100.0 mg/kg/injection, schedule: Q01DX009 (ip), vehicle: saline with Tween-80
[3] = dose: 25.0 mg/kg/injection, schedule: Q01DX009 (ip), vehicle: Klucel (hydroxypropylcellulose) (HPC)
[4] = dose: 50.0 mg/kg/injection, schedule: Q01DX009 (ip), vehicle: Klucel (hydroxypropylcellulose) (HPC)
[5] = dose: 100.0 mg/kg/injection, schedule: Q01DX009 (ip), vehicle: Klucel (hydroxypropylcellulose) (HPC)
[6] = dose: 75.0 mg/kg/injection, schedule: Q01DX009 (ip), vehicle: saline with Tween-80
[7] = dose: 100.0 mg/kg/injection, schedule: Q04DX003 (ip), vehicle: saline with Tween-80
[8] = dose: 200.0 mg/kg/injection, schedule: Q04DX003 (ip), vehicle: saline with Tween-80
[9] = dose: 400.0 mg/kg/injection, schedule: Q04DX003 (ip), vehicle: saline with Tween-80
[10] = dose: 200.0 mg/kg/injection, schedule: Q01DX009 (ip), vehicle: saline with Tween-80
[11] = dose: 100.0 mg/kg/injection, schedule: Q04DX003 (ip), vehicle: Klucel (hydroxypropylcellulose) (HPC)
[12] = dose: 200.0 mg/kg/injection, schedule: Q04DX003 (ip), vehicle: Klucel (hydroxypropylcellulose) (HPC)
[13] = dose: 400.0 mg/kg/injection, schedule: Q04DX003 (ip), vehicle: Klucel (hydroxypropylcellulose) (HPC)
[14] = dose: 100.0 mg/kg/injection, schedule: Q01DX009 (ip), vehicle: saline

N=c1nc2n(cc1F)[C@@H]1O[C@H](CO)[C@@H](O)[C@@H]1O2
T/C (dose: 64.0 mg/kg/injection, schedule: Q01DX005 (ip), vehicle: saline): 153 % of control
T/C (dose: 128.0 mg/kg/injection, schedule: Q01DX005 (ip), vehicle: saline): 171 % of control
T/C (dose: 256.0 mg/kg/injection, schedule: Q01DX005 (ip), vehicle: saline): 209 % of control
T/C (dose: 512.0 mg/kg/injection, schedule: Q01DX005 (ip), vehicle: saline): 276 % of control
T/C (dose: 768.0 mg/kg/injection, schedule: Q01DX005 (ip), vehicle: saline): 86 % of control

S=c1nc[nH]c2c1ncn2C1CCCO1 (stereo not drawn)
T/C [1]: 95 % of control
T/C [2]: 118 % of control

O/N=C\c1ccccc1
T/C [3]: 108 % of control
T/C [4]: 95 % of control
T/C (dose: 75.0 mg/kg/injection, schedule: Q04DX003 (ip), vehicle: saline with Tween-80): 110 % of control
T/C [5]: 91 % of control
T/C (dose: 150.0 mg/kg/injection, schedule: Q04DX003 (ip), vehicle: saline with Tween-80): 105 % of control

Oc1ccc(I)c2cccnc12
T/C (dose: 62.5 mg/kg/injection, schedule: Q01DX010 (ip), vehicle: carboxymethylcellulose (CMC)): 90 % of control
T/C (dose: 250.0 mg/kg/injection, schedule: Q01DX010 (ip), vehicle: carboxymethylcellulose (CMC)): 100 % of control
T/C (dose: 500.0 mg/kg/injection, schedule: Q01DX010 (ip), vehicle: carboxymethylcellulose (CMC)): 110 % of control

O=[N+]([O-])c1ccc(Oc2ccc(-c3ccccc3)cc2)c(Cl)c1
T/C (dose: 18.75 mg/kg/injection, schedule: Q01DX009 (ip), vehicle: saline with Tween-80): 92 % of control
T/C [6]: 93 % of control

O=C(c1ccccc1)c1c(-c2ccccc2)c(C(=O)c2ccccc2)c2ccccc2c1Cl
T/C (dose: 12.5 mg/kg/injection, schedule: Q01DX009 (ip), vehicle: water): 102 % of control
T/C (dose: 25.0 mg/kg/injection, schedule: Q01DX009 (ip), vehicle: water): 113 % of control
T/C (dose: 25.0 mg/kg/injection, schedule: Q04DX003 (ip), vehicle: water): 114 % of control
T/C (dose: 50.0 mg/kg/injection, schedule: Q01DX009 (ip), vehicle: water): 102 % of control
T/C (dose: 50.0 mg/kg/injection, schedule: Q04DX003 (ip), vehicle: water): 104 % of control
T/C (dose: 100.0 mg/kg/injection, schedule: Q01DX009 (ip), vehicle: water): 109 % of control
T/C (dose: 100.0 mg/kg/injection, schedule: Q04DX003 (ip), vehicle: water): 96 % of control
T/C (dose: 200.0 mg/kg/injection, schedule: Q01DX009 (ip), vehicle: water): 96 % of control
T/C (dose: 200.0 mg/kg/injection, schedule: Q04DX003 (ip), vehicle: water): 100 % of control
T/C (dose: 400.0 mg/kg/injection, schedule: Q01DX009 (ip), vehicle: water): 102 % of control
T/C (dose: 400.0 mg/kg/injection, schedule: Q04DX003 (ip), vehicle: water): 98 % of control

N#CC(C#N)c1nc2cccnc2s1
T/C [7]: 109 % of control
T/C [8]: 93 % of control

CCC(=O)c1ccc(OCC(O)CN2CCN(c3ccccc3OC)CC2)cc1 (stereo not drawn)
T/C [7]: 104 % of control
T/C [8]: 104 % of control
T/C [9]: 119 % of control

CCCCCC1(C)OCC(C)O1 (stereo not drawn)
T/C [1]: 101 % of control
T/C [2]: 106 % of control
T/C [10]: 109 % of control

O=C(C(Br)C(Br)c1ccccc1)C(Br)C(Br)c1ccccc1 (stereo not drawn)
T/C [2]: 104 % of control
T/C [10]: 104 % of control
T/C (dose: 400.0 mg/kg/injection, schedule: Q01DX009 (ip), vehicle: saline with Tween-80): 100 % of control

CC(C)CCOP(=S)(N1CC1)N1CC1
T/C [9]: 177 % of control

CNC(=S)N1N=C(C)CC1=O
T/C (dose: 37.5 mg/kg/injection, schedule: Q01DX009 (ip), vehicle: saline with Tween-80): 106 % of control
T/C [6]: 99 % of control

C=C1[C@@H](O)[C@]2(O)OC[C@@]34[C@H]1[C@@H](OC(=O)C(C)CC)C(=O)O[C@@H]3C[C@H]1C(C)=CC(=O)[C@@H](O)[C@]1(C)[C@@H]24 (stereo partly drawn)
T/C (dose: 0.5 mg/kg/injection, schedule: Q01DX009 (ip), vehicle: saline with Tween-80): 184 % of control
T/C (dose: 1.0 mg/kg/injection, schedule: Q01DX009 (ip), vehicle: saline with Tween-80): 159 % of control
T/C (dose: 1.0 mg/kg/injection, schedule: Q01DX009 (ip), vehicle: saline): 153 % of control
T/C (dose: 2.0 mg/kg/injection, schedule: Q01DX009 (ip), vehicle: saline with Tween-80): 178 % of control
T/C (dose: 4.0 mg/kg/injection, schedule: Q01DX009 (ip), vehicle: saline): 166 % of control
T/C (dose: 8.0 mg/kg/injection, schedule: Q01DX009 (ip), vehicle: saline): 95 % of control

O=[N+]([O-])c1ccc(F)c(CNc2ncnc3c2ncn3C2CCCCO2)c1 (stereo not drawn)
T/C (dose: 100.0 mg/kg/injection, schedule: Q01DX001 (ip), vehicle: Klucel (hydroxypropylcellulose) (HPC)): 95 % of control
T/C (dose: 200.0 mg/kg/injection, schedule: Q01DX001 (ip), vehicle: Klucel (hydroxypropylcellulose) (HPC)): 110 % of control
T/C (dose: 400.0 mg/kg/injection, schedule: Q01DX001 (ip), vehicle: Klucel (hydroxypropylcellulose) (HPC)): 105 % of control

CCCC(=O)c1c(C)cc(C)cc1C
T/C [11]: 110 % of control
T/C [12]: 110 % of control
T/C [13]: 120 % of control

COC(=O)C(C#N)=N/C(=C/C=C1/N(C)c2ccccc2C1(C)C)c1ccccc1
T/C [1]: 102 % of control
T/C [2]: 96 % of control
T/C [10]: 97 % of control

CC(C)(C)C1CCC(C#N)(N=Nc2ccccc2)CC1 (stereo not drawn)
T/C (dose: 50.0 mg/kg/injection, schedule: Q01DX005 (ip), vehicle: saline with Tween-80): 102 % of control
T/C (dose: 100.0 mg/kg/injection, schedule: Q01DX005 (ip), vehicle: saline with Tween-80): 89 % of control

CC(C)CCCC(=O)CCCCCCC(=O)CCN(O)C(=O)C(N)CO (stereo not drawn)
T/C (dose: 6.25 mg/kg/injection, schedule: Q01DX009 (ip), vehicle: Klucel (hydroxypropylcellulose) (HPC)): 98 % of control
T/C (dose: 12.5 mg/kg/injection, schedule: Q01DX009 (ip), vehicle: Klucel (hydroxypropylcellulose) (HPC)): 94 % of control
T/C [3]: 94 % of control

O=C(NO)c1ccccc1
T/C [4]: 105 % of control and 116 % of control
T/C (dose: 50.0 mg/kg/injection, schedule: Q04DX003 (ip), vehicle: Klucel (hydroxypropylcellulose) (HPC)): 103 % of control and 116 % of control
T/C [5]: 91 % of control and 104 % of control and 105 % of control
T/C [11]: 106 % of control and 108 % of control and 113 % of control
T/C (dose: 200.0 mg/kg/injection, schedule: Q01DX009 (ip), vehicle: Klucel (hydroxypropylcellulose) (HPC)): 107 % of control and 109 % of control
T/C [12]: 104 % of control (2×) and 108 % of control
T/C [13]: 100 % of control and 116 % of control

Cc1cc(NC(=O)Nc2ccc(C3=NCCCN3)cc2)ccc1NC(=O)Nc1ccc(C2=NCCCN2)cc1
T/C (dose: 29.0 mg/kg/injection, schedule: Q01DX009 (ip), vehicle: saline): 166 % of control
T/C (dose: 45.0 mg/kg/injection, schedule: Q01DX009 (ip), vehicle: saline): 153 % of control
T/C (dose: 65.0 mg/kg/injection, schedule: Q01DX009 (ip), vehicle: saline): 157 % of control
T/C [14]: 216 % of control
T/C (dose: 130.0 mg/kg/injection, schedule: Q01DX009 (ip), vehicle: saline): 243 % of control
T/C (dose: 200.0 mg/kg/injection, schedule: Q01DX009 (ip), vehicle: saline): 227 % of control and 219 % of control
T/C (dose: 300.0 mg/kg/injection, schedule: Q01DX009 (ip), vehicle: saline): 169 % of control
T/C (dose: 400.0 mg/kg/injection, schedule: Q01DX009 (ip), vehicle: saline): 98 % of control

CCCN(CCC)CCCOC(=O)c1ccc(N)cc1
T/C (dose: 25.0 mg/kg/injection, schedule: Q01DX009 (ip), vehicle: saline): 100 % of control
T/C (dose: 50.0 mg/kg/injection, schedule: Q01DX009 (ip), vehicle: saline): 96 % of control
T/C (dose: 50.0 mg/kg/injection, schedule: Q04DX003 (ip), vehicle: saline): 100 % of control
T/C [14]: 89 % of control
T/C (dose: 100.0 mg/kg/injection, schedule: Q04DX003 (ip), vehicle: saline): 95 % of control

O=CNc1ccc(/C=C\c2ccnc3ccccc23)cc1
T/C (dose: 3.13 mg/kg/injection, schedule: Q01DX009 (ip), vehicle: saline with Tween-80): 111 % of control
T/C (dose: 6.25 mg/kg/injection, schedule: Q01DX009 (ip), vehicle: saline with Tween-80): 106 % of control
T/C (dose: 12.5 mg/kg/injection, schedule: Q01DX009 (ip), vehicle: saline with Tween-80): 103 % of control
T/C [1]: 94 % of control
T/C [2]: 86 % of control
T/C [10]: 91 % of control
